According to ChEMBL document CHEMBL1201862, “PubChem BioAssay data set” (2004):
Activity calls are given as the source filed them.

Experiments:
[1] = NIH-3T3 fibroblast cytotoxicity, dose response, cytotoxicity control, cell-based, fluorescence, Alamar Blue, secondary assay (AID 2327); assay type: functional;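 also: NIH-3T3 mouse fibroblasts cultured with fluconazole at 8 µg/mL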
[2] = fluconazole-exposed Candida albicans growth modulators – fluorescence, retest, confirmation (AID 2467); assay type: functional, cell-based
[3] = Trypanosoma cruzi growth suppression in host cells – NIH3T3 host cells, beta-gal luminescence, confirmation (AID 2044); assay type: functional, cell-based;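 also: intracellular parasites grown in NIH/3T3 mouse fibroblasts as host cells; luminescent beta-galactosidase reporter signal from transgenic T. cruzi replicating inside host cells; inhibitors lower the luminescence signal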
[4] = viability of PTEN-deleted HCT116 cells – cell-based, HCT116 PTEN knockout, dose response (AID 1047); assay type: functional;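 also: HCT116 colon tumor cells with PTEN knocked out; cells exposed to compound for 60 hours before readout; potency for loss of cell viability measured by luminescence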
[5] = NIH3T3 cell viability loss – ATP luminescence, mouse fibroblasts, counter-screen, dose response (AID 2010); assay type: functional, cell-based;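 also: cells exposed to compound for about 90 hours before reading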
[6] = viability of HCT116 lacking mutant beta-catenin – cell-based, human colon tumor, dose response (AID 1045); assay type: functional;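 also: HCT116 colon tumor cells with beta catenin knocked out; cells exposed to compound for 60 hours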
[7] = biological target: Glucose-6-phosphate 1-dehydrogenase (Homo sapiens, UniProt P11413); assay: inhibition of Homo sapiens G6PD, dose series – biochemical, fluorescence, selectivity assay for P. falciparum G6PD inhibitor project, dose response (AID 504792); assay type: functional
Chain of Glucose-6-phosphate 1-dehydrogenase (P11413 whole entry): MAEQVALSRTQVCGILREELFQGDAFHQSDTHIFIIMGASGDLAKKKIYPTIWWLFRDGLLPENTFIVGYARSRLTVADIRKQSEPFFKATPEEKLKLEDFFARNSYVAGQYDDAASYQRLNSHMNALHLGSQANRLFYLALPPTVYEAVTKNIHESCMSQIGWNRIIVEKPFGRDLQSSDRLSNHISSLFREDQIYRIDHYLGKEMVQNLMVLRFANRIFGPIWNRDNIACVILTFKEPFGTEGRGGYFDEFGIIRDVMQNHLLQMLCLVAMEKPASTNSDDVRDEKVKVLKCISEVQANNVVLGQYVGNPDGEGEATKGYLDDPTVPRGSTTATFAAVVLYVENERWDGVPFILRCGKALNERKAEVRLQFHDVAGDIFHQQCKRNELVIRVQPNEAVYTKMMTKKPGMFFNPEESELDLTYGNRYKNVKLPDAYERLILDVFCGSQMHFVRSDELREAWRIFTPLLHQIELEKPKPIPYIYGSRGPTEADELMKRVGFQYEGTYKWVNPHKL

[8] = biological target: Voltage-dependent T-type calcium channel subunit alpha-1H (Homo sapiens, UniProt O95180); assay type: functional;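 also: channel activity triggered by adding a high calcium stimulation buffer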
Prothrombin = Prothrombin (Homo sapiens, UniProt P00734); assay: Thrombin 1536 HTS Dose Response Confirmation. [Related pubchem assays: 1046 (Thrombin 1536 HTS; hits were confirmed in this assay)]; assay type: functional
[9] = biological target: T1, Voltage-gated N-type calcium channel alpha-1B subunit/Amyloid beta A4 precursor protein-binding family A member 1 (Homo sapiens, UniProt Q00975+Q02410); assay type: protein assay
T1 sequence (Q00975 whole entry): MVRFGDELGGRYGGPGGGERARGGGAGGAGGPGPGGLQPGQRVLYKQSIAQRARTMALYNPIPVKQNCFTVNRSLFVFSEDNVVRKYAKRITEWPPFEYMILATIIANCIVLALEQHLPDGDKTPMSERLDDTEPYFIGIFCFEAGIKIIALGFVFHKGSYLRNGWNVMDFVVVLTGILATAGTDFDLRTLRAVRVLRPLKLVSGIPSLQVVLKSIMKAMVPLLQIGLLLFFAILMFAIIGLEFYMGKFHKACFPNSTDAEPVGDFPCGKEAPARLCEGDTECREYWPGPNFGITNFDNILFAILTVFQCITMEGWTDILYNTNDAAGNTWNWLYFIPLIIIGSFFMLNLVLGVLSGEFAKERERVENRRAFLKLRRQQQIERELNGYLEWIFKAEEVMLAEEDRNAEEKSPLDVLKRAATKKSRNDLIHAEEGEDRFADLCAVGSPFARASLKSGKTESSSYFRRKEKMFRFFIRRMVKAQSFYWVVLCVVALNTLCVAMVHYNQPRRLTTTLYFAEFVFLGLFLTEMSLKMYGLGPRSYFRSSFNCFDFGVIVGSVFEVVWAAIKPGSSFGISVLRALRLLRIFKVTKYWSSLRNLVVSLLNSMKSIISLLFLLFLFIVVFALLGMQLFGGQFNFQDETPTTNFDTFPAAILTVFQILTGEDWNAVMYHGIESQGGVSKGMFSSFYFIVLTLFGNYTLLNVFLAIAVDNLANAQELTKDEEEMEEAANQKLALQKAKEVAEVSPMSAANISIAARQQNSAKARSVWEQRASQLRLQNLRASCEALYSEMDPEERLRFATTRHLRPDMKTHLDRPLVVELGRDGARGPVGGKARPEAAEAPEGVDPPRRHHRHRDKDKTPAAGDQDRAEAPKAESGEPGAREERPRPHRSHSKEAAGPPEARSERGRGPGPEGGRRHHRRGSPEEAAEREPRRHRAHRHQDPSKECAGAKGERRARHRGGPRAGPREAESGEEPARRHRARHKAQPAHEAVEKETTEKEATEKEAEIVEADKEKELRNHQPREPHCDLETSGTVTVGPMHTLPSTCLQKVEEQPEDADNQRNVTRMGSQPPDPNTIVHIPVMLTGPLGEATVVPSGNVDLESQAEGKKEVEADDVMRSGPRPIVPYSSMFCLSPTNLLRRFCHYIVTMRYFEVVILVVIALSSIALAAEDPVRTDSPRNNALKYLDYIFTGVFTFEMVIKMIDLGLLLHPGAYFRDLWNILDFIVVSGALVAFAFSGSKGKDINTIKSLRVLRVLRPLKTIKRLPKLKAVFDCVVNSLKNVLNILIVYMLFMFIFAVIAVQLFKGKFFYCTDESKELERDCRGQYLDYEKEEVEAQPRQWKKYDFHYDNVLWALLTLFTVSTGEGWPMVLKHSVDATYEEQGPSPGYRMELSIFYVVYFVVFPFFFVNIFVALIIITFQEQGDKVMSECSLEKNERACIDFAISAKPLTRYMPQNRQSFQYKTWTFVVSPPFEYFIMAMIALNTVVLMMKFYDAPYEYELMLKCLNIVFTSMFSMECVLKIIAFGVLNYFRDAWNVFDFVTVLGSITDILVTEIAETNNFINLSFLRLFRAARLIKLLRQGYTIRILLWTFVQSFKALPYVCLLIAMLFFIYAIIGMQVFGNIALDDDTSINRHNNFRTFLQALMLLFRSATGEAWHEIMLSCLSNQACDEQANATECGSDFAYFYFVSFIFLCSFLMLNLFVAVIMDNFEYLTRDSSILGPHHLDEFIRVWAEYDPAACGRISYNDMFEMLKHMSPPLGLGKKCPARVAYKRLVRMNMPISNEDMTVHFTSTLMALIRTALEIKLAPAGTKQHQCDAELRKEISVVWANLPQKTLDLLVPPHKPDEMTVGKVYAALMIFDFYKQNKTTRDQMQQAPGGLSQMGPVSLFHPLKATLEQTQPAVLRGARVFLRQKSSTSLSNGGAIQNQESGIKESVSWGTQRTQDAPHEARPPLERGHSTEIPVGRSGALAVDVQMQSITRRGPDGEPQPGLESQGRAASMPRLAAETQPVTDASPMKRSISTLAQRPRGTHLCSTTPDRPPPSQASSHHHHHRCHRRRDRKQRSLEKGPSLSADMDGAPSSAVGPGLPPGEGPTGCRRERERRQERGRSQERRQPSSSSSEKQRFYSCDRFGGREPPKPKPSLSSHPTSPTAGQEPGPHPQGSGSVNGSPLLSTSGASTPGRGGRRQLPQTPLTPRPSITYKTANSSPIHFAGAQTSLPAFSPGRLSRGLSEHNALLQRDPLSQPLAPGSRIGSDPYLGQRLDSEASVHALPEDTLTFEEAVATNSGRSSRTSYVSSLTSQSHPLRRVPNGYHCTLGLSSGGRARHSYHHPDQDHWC
T1 sequence (Q02410 whole entry): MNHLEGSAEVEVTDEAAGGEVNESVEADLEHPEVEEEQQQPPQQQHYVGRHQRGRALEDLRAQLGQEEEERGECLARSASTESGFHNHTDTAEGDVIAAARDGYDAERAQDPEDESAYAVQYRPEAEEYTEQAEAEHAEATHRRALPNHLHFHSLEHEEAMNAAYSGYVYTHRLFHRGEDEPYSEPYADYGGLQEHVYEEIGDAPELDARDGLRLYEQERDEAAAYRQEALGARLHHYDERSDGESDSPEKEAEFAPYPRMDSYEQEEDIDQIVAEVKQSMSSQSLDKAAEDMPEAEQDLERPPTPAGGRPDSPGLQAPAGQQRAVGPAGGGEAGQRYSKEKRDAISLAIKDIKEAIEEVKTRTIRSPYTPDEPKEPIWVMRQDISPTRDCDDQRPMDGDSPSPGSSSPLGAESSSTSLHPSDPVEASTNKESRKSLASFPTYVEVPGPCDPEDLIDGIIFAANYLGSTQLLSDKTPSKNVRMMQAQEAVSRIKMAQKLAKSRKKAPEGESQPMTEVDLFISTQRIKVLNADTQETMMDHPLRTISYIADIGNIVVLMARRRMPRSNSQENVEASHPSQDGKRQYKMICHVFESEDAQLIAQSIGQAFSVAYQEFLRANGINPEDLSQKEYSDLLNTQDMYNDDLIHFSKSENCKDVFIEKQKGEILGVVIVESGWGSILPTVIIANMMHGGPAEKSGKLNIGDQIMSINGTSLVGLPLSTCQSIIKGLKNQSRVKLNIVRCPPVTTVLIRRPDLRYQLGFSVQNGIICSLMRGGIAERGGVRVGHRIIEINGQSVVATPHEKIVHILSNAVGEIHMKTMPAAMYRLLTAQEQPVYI

[10] = biological target: T1, Voltage-gated N-type calcium channel alpha-1B subunit/Amyloid beta A4 precursor protein-binding family A member 1; assay type: protein assay; remark: listed apart in the source
[11] = HEK-293T viability loss after treatment – luminescence, T-cell screen hits, cytotoxicity control for TCR NF-kB inhibitor project, dose response (AID 489026); assay type: functional, cell-based;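 also: cells exposed to compound about 14 hours before the viability readout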
[12] = Luminescence-based cell-based high throughput dose response assay to identify activators of the DAF-12 from the parasite S. stercoralis (ssDAF-12).; assay type: functional
[13] = A Cell Based Secondary Assay To Explore Cytotoxicity of Compounds that Sensitize Mycobacterium Tuberculosis to Beta-Lactam Antibiotics.; assay type: functional
Vero = assay: cells; assay type: functional; conditions: Chlorocebus sabaeus
[14] = intracellular Trypanosoma cruzi inhibitors in host cells – cell-based, plate reader, cherry-pick samples, set 3, dose response (AID 651818); assay type: functional;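 also: compounds incubated with infected cells for about four days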
[15] = activation of miR-122 Renilla sensor silencing – cell-based, Huh7 psiCHECK-miR122, Renilla luciferase, cherry-picked, dose response (AID 651956); assay type: functional;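 also: huh7 hepatoma cells stably carrying a psiCHECK-2 miR-122 sensor plasmid; renilla luciferase signal reporting endogenous miR-122 activity after 48 h compound exposure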
[16] = general mammalian cell viability loss – inhibitor set, cherry-pick, set 2, cytotoxicity control for miR-122 modulator project, dose response (AID 720697); assay type: functional, cell-based
[17] = blockers of HIV-1 envelope-mediated cell-cell fusion – cherry-pick, dose response (AID 652057); assay type: functional, cell-based
[18] = blockers of HIV-1 ZM109 envelope-driven cell-cell fusion – HeLa effector, CEM target cells, luciferase, cherry-pick, dose response (AID 652058); assay type: functional, cell-based;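 also: luciferase signal from HIV-1 Env mediated cell-cell fusion of effector and target cells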
[19] = HIV-1 AD8 envelope cell-cell fusion blockers – cherry-pick, dose response (AID 652062); assay type: functional, cell-based;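 also: luciferase signal from cell-cell fusion driven by HIV-1 clade B AD8 Env; potency is for inhibitors of fusion seen as a drop in luminescence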
cells [20] = assay type: functional, cell-based
cells [21] = assay type: functional, cell-based; remark: listed apart in the source
[22] = biological target: T2, Microphthalmia-associated transcription factor (Homo sapiens, UniProt O75030); assay: reducers of TRPM1 reporter luminescence, concentration series – cell-based, SK-MEL-5, cherry-picked, set 3, MITF inhibitor project, dose response (AID 493073); assay type: functional;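 also: SK-MEL-5 melanoma cells with luciferase driven by the MITF target TRPM1 promoter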
T2 sequence (O75030 whole entry): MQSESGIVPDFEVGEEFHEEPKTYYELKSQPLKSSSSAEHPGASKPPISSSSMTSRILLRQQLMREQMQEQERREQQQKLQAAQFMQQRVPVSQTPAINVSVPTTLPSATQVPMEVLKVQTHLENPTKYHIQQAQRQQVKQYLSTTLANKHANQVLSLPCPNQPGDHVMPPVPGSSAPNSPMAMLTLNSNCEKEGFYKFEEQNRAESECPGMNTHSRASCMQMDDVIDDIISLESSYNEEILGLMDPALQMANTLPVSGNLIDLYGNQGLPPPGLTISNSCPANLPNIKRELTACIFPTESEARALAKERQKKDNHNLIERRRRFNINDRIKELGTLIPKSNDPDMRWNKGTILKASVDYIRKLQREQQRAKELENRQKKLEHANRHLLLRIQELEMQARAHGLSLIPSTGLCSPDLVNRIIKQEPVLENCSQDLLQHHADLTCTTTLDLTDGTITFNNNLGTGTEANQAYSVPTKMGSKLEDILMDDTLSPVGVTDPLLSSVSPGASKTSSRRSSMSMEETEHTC

HEK293 = assay: EBV LMP1 TES2 canonical NF-kB signalling blockers – cell-based, HEK293, luciferase, cherry-pick, dose response (AID 588343); assay type: functional; conditions: Homo sapiens
Bcl-2-related protein A1 = biological target: T3, Bcl-2-related protein A1 (Mus musculus, UniProt Q07440); assay type: functional;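 also: confirmatory dose–response counterscreen on Bfl-1, used to check hits from a UBC13 polyubiquitin inhibitor campaign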
T3 sequence (Q07440 whole entry): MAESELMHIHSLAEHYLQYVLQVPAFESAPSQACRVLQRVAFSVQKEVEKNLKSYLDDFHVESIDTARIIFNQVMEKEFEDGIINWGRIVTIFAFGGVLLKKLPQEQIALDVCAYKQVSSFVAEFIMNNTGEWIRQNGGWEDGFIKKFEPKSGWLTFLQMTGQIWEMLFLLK

[23] = HEK-293T cell viability reduction – luminescence, B-cell screen hits, cytotoxicity control for BCR NF-kB inhibitor project, dose response (AID 489021); assay type: functional, cell-based;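 also: HEK-293T cells carrying an NF-kB luciferase reporter; cells exposed to compound for about 14 hours before viability readout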

Structure (SMILES): Oc1ccc(CN2CCCCC2)c2cccnc12
- EC50 [1]: > 150 µM (inactive)
- EC50 [2]: > 38 µM (not active)
- EC50 [3]: 1.78 µM (active)
- EC50 [4]: 3.45 µM (active)
- EC50 [5]: 11.4 µM (active)
- EC50 [6]: 3 µM (active)

Structure (SMILES): O=C(CSc1nc2ccccc2[nH]1)NC1CCCc2ccccc21 (centres undefined)
- IC50 [7]: > 80 µM (inactive)

Structure (SMILES): O=C(CCCOc1ccccc1)N1CCN(c2ccc(F)cc2)CC1
- EC50 [8]: 4.49 µM (active)

Structure (SMILES): COc1cc(S(=O)(=O)N2CCOCC2)ccc1NC(=O)COC(=O)COc1ccccc1
- IC50 (Prothrombin): 3.63 µM (active)

Structure (SMILES): NS(=O)(=O)c1ccc(-c2ccc(C=C3C(=O)c4ccccc4C3=O)o2)cc1
- IC50 [9]: > 56.8 µM (not active)
- IC50 [10]: > 50 µM (inactive)

Structure (SMILES): CCOC(=O)c1[nH]c(C)c(C(=O)Nc2ccc(C)cc2C)c1C
- IC50 [11]: > 80 µM (inactive)

Structure (SMILES): Cc1ccc(CNc2nc3ccccc3n2C)cc1
- IC50 [12]: > 67.5 µM (inactive)

Structure (SMILES): Cc1ccc(CSc2nccc(-c3c(C)nc4ccccn34)n2)cc1
- CC50 [13]: 24.7 µM (active)

Structure (SMILES): CC1(C)CC(=O)C2=C(C1)N1C(=C(C#N)C2c2ccccc2Cl)N=C(N)c2ccccc21 (centres undefined)
- EC50 [4]: 20.4 µM (active)
- EC50 [6]: 22.7 µM (active)

Structure (SMILES): Cc1cc(F)ccc1N1CCC(N2CCN(CCC(C)C)C(CCO)C2)CC1 (centres undefined)
- IC50 (Prothrombin): > 50 µM (not active)

Structure (SMILES): CCOc1ccc(N(C)S(=O)(=O)c2ccc(-c3cc(C)no3)s2)cc1
- IC50 [11]: > 80 µM (inactive)

Structure (SMILES): COc1ccc(/C=C2\SC(=S)N(CCC(=O)N3CCCCC3)C2=O)cc1
- CC50 (Vero): > 25 µM (active)

Structure (SMILES): C[C@H](CO)N1C[C@H](C)[C@H](CN(C)C)Oc2c(NC(=O)Nc3ccc(C(F)(F)F)cc3)cccc2C1=O
- AC50 [14]: 3.27 µM (active)

Structure (SMILES): C[C@@H]1CCCCO[C@@H](CN(C)C(=O)C2CCCCC2)[C@@H](C)CN([C@H](C)CO)C(=O)c2cc(NC(=O)Nc3ccc(C(F)(F)F)cc3)ccc2O1
- AC50 [14]: 1.91 µM (active)

Structure (SMILES): C[C@H]1CN([C@@H](C)CO)C(=O)c2cc(NS(=O)(=O)c3ccc(Cl)cc3)ccc2O[C@H]1CN(C)S(=O)(=O)c1ccc(Cl)cc1
- AC50 [14]: 4.63 µM (active)

Structure (SMILES): C[C@@H]1CN([C@@H](C)CO)C(=O)Cc2cc(NS(=O)(=O)c3cccs3)ccc2O[C@@H]1CN(C)Cc1ccc(C(=O)Nc2ccccc2N)cc1
- AC50 [14]: 2.33 µM (active)

Structure (SMILES): C/C=C/c1ccc2c(c1)O[C@H](CN(C)C(=O)c1cnccn1)[C@H](C)CN([C@@H](C)CO)S2(=O)=O
- AC50 [15]: 26.6 µM (active)
- AC50 [16]: 10.3 µM (active)

Structure (SMILES): CC(C)NC(=O)Nc1ccc2c(c1)CC(=O)N([C@H](C)CO)C[C@H](C)[C@H](CN(C)S(=O)(=O)c1cccs1)O2
- AC50 [17]: 7.82 µM (active)
- AC50 [18]: 4.72 µM (active)
- AC50 [19]: 12.8 µM (active)

Structure (SMILES): COc1cccc(/C=N/Nc2ncnc3c2ncn3Cc2ccccc2)c1O
- EC50 (cells [20]): 6.75 µM (active)
- EC50 (cells [21]): > 350 µM (not active)
- IC50 [11]: > 80 µM (inactive)
- AC50 [22]: 4.6 µM (active)
- AC50 (HEK293): 4.68 µM (active)

Structure (SMILES): COC(=O)C[C@@H]1C[C@H]2c3cc(NS(=O)(=O)c4cccc(OC)c4)ccc3O[C@H]2[C@@H](CO)O1
- AC50 [18]: 3.74 µM (active)
- AC50 [19]: 66.1 µM (active)

Structure (SMILES): COc1cc2c3c(c1)c(/N=N/C(=N)S)c(O)n3C(C)(C)C=C2C
- IC50 (Bcl-2-related protein A1): > 20 µM (inactive)
- IC50 [23]: > 80 µM (inactive)

Structure (SMILES): O=C(O)c1ccc(N/N=C/C=C/c2ccccc2[N+](=O)[O-])cc1
- IC50 [12]: > 67.6 µM (inactive)

Structure (SMILES): O=C(N/N=C/c1ccc(-c2cccc(C(F)(F)F)c2)o1)c1ccccc1O
- CC50 [13]: 11.5 µM (active)
